Test results taken from US12522597B2, “Methods and compositions for modulating splicing” (Skyhawk Therapeutics, Inc., priority 2019, dated 2026).
Read-outs that look alike come from different tables or passages of the source.

Tests used:
[1] = tested on: Huntingtin (HTT) transcripts; assay: Quantitative splicing assay (HTT), qPCR; format: cell-based; details: Homo sapiens, GM04724 (CAG 70/20) Huntington's disease patient lymphoblasts, 24 h
Method: GM04724 (CAG 70/20) Huntington's disease patient lymphoblasts (Coriell) are plated in 96-wel v-bottom plates at 50,000 cells/well. Immediately after plating, cells are dosed with compound for 24 h at concentrations ranging from 2.5 uM to 0.15 nM (0.1% DMSO). Treated cells are lysed and cDNA synthesized using the Fast Advanced Cells-to-Ct kit (Thermofisher A35378) according to the manufacturer's instructions. 2 uL of each cDNA are used in qPCR reactions to confirm the compound-induced inclusion of a cryptic exon within intron 49 of the Huntingtin (HTT) transcripts. The qPCR reactions are prepared in 384-well plates in 10 uL volume, using TaqMan™ Fast Advanced Master Mix [ThermoFisher; 4444965] with primers and probes shown in the table below. Reactions are run in a Quant Studio 6 qPCR instrument with default settings.

[2] = tested on: MDR1-MDCK cell monolayers; assay: MDCK-MDR1 permeability assay (BBB penetration potential); format: in vitro ADME; details: dog, MDCK-MDR1, 120 min, 5 μM, pH 7.4
Method: (§1) Each determination is performed in duplicate. […] Analytical conditions are outlined below.

MDR1 = assay: as above; format: in vitro ADME; details: dog; for efflux ratio at 120 min, 5 μM: MDCK-MDR1, pH 7.4, MDCK-MDR1: Efflux; for Papp A→B at 120 min, 5 μM: MDCK-MDR1, pH 7.4, MDCK-MDR1: Papp A-B; for Papp B→A at 120 min, 5 μM: MDCK-MDR1, pH 7.4, MDCK-MDR1: Papp B-A
Method: as §1

mHTT protein = mHTT protein assay (2B7-MW1, Mesoscale Discovery); format: cell-based, human; details: GM04724 (CAG 70/20) Huntington's disease patient lymphoblast cells, 48 hours, 2B7-MW1 MSD; read-out: HTT Potency - Protein EC50 mHTT (average)
How it was run: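 GM04724 Huntington's patient lymphoblasts (CAG 70/20) were treated for 48 h at 10 μM to 0.6 nM. mHTT was quantified by 2B7-MW1 MSD immunoassay, whose signal depends on polyQ expansion and HTT fragment size. Viability was run on a parallel plate by CellTiter-Glo.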

[3] = qPCR HTTex49_50, read-out: HTT Potency - Splicing: E49-50 EC50 (average)
[4] = qPCR cryptic exon 49b inclusion, read-out: HTT Potency - Splicing: E49b EC50 (average)

Row | SMILES | EC50 [1, 3] [nM] | EC50 [1, 4] [nM] | MDCK-MDR1: % Recov A-B [2] [%] | MDCK-MDR1: % Recov B-A [2] [%] | efflux ratio at 120 min, 5 μM (MDR1) | Papp A→B at 120 min, 5 μM (MDR1) [×10⁻⁶ cm/s] | Papp B→A at 120 min, 5 μM (MDR1) [×10⁻⁶ cm/s] | EC50 (mHTT protein) [nM]
1 | Cn1ccc(-c2ccc(-c3ccc(O[C@H]4C[C@@H]5CCC[C@@H](N5)[C@H]4F)nn3)c(O)c2)n1 (single isomer, unassigned) [68-ENT2] | 16 to 50 | 16 to 50 | 76 | 89 | 4 | 8.23 | 31.6 | 101 to 500
2 | Cc1nc(-c2ccc(-c3ccc(O[C@H]4C[C@@H]5CCC[C@@H](N5)[C@H]4F)nn3)c(O)c2)cs1 (single isomer, unassigned) [71-ENT1] | 16 to 50 | 16 to 50 | 47 | 60 | 4 | 4.96 | 18.6 | 16 to 50
3 | Cn1c(=O)oc2cc(-c3ccc(O[C@@H]4C[C@H]5CCC[C@H](N5)[C@@H]4F)nn3)c(O)cc21 (single isomer, unassigned) [74-ENT1] | 101 to 500 | 501 to 10000 | 96 | 88 | 4 | 5.6 | 22.8 | 501 to 10000
4 | Cn1c(=O)oc2cc(-c3ccc(O[C@H]4C[C@@H]5CCC[C@@H](N5)[C@H]4F)nn3)c(O)cc21 (single isomer, unassigned) [74-ENT2] | 501 to 10000 | 501 to 10000 | 87 | 75 | 5 | 6.96 | 31.4 | 501 to 10000
5 | Cc1ccc(-c2ccc(-c3ccc(O[C@@H]4C[C@H]5CCC[C@H](N5)[C@@H]4F)nn3)c(O)c2)nn1 (single isomer, unassigned) [75-ENT1] | 501 to 10000 | 501 to 10000 | 90 | 92 | 9 | 3.66 | 32.5 | 501 to 10000
6 | Cc1ccc(-c2ccc(-c3ccc(O[C@H]4C[C@@H]5CCC[C@@H](N5)[C@H]4F)nn3)c(O)c2)nn1 (single isomer, unassigned) [75-ENT2] | 501 to 10000 | 501 to 10000 | 82 | 78 | 10 | 3.96 | 39.7 | 501 to 10000
7 | COc1cc(-c2ccc(-c3ccc(O[C@@H]4C[C@H]5CCC[C@H](N5)[C@@H]4F)nn3)c(O)c2)cnn1 (single isomer, unassigned) [76-ENT1] | 0.01 to 15 | 0.01 to 15 | 64 | 70 | 8 | 3.83 | 32.3 | 16 to 50
8 | COc1cc(-c2ccc(-c3ccc(O[C@H]4C[C@@H]5CCC[C@@H](N5)[C@H]4F)nn3)c(O)c2)cnn1 (single isomer, unassigned) [76-ENT2] | 0.01 to 15 | 0.01 to 15 | 82 | 85 | 10 | 4.19 | 39.9 | 0.01 to 15
9 | Oc1cc(-c2cnccn2)ccc1-c1ccc(O[C@H]2C[C@@H]3CCC[C@@H](N3)[C@H]2F)nn1 (single isomer, unassigned) [79-ENT2] | 51 to 100 | 51 to 100 | 74 | 82 | 3 | 9.52 | 25.8 | 101 to 500
10 | Cn1cc(-c2cc(O)c(-c3ccc(O[C@@H]4C[C@H]5CCC[C@H](N5)[C@@H]4F)nn3)cc2F)cn1 (single isomer, unassigned) [82-ENT1] | 0.01 to 15 | 0.01 to 15 | 45 | 72 | 4 | 4.12 | 16.8 | 0.01 to 15
